According to the supplement of paper PMC10307832:

Legend:
Assay in all cases: relative viability (nuclei count vs DMSO), 5 days (fraction); higher = more cells survive
SK-MES-1 = test system: SK-MES-1
Method in brief: (§1)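 The day after seeding in 1536-well plates, lung cancer cell lines were treated by pin tool with a single drug, or with a fixed anchor-drug dose together with five library-drug doses (not always all listed) in √10 steps. After 5 days, a combined fix-and-stain solution (final 0.05% Triton X-100, 1% formaldehyde, 1 ug/ml Hoechst) was added. Nuclei counted on 4× images gave relative viability as treated counts over vehicle counts, reported as the median of duplicate plates.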

H3255 = test system: H3255
Method in brief: as §1

NCI-H23 = test system: NCI-H23
Method in brief: as §1

NCI-H2170 = test system: NCI-H2170
Method in brief: as §1

SW 900 = test system: SW 900
Method in brief: as §1

LOU-NH91 = test system: LOU-NH91
Method in brief: as §1

NCI-H1975 = test system: NCI-H1975
Method in brief: as §1

HCC-366 = test system: HCC-366
Method in brief: as §1

NCI-H1734 = test system: NCI-H1734
Method in brief: as §1

EMC-BAC-2 = test system: EMC-BAC-2
Method in brief: as §1

NCI-H1666 = test system: NCI-H1666
Method in brief: as §1

COc1cc2nccc(Oc3ccc(NC(=O)Nc4cc(C)on4)c(Cl)c3)c2cc1OC [Tivozanib] + O=C(CCCCCCC(=O)Nc1ccccc1)NO [Vorinostat] (partner 1 µM)
relative viability (SK-MES-1; first compound 0.05 µM): 1.13 | relative viability (SK-MES-1; first compound 0.1581 µM): 1.07 | relative viability (SK-MES-1; first compound 0.5 µM): 0.996 | relative viability (H3255; first compound 0.005 µM): 0.633 | relative viability (H3255; first compound 0.01581 µM): 0.794 | relative viability (H3255; first compound 0.05 µM): 0.885 | relative viability (H3255; first compound 0.1581 µM): 0.888 | relative viability (H3255; first compound 0.5 µM): 0.611 | relative viability (NCI-H23; first compound 0.005 µM): 0.522 | relative viability (NCI-H23; first compound 0.01581 µM): 0.484 | relative viability (NCI-H23; first compound 0.05 µM): 0.6 | relative viability (NCI-H23; first compound 0.5 µM): 0.375 | relative viability (NCI-H2170; first compound 0.005 µM): 0.74 | relative viability (NCI-H2170; first compound 0.01581 µM): 0.782 | relative viability (NCI-H2170; first compound 0.05 µM): 0.856 | relative viability (NCI-H2170; first compound 0.5 µM): 0.816 | relative viability (SW 900; first compound 0.005 µM): 0.459 | relative viability (SW 900; first compound 0.01581 µM): 0.481 | relative viability (SW 900; first compound 0.05 µM): 0.627 | relative viability (SW 900; first compound 0.5 µM): 0.464 | relative viability (LOU-NH91; first compound 0.005 µM): 0.754 | relative viability (LOU-NH91; first compound 0.01581 µM): 0.952 | relative viability (LOU-NH91; first compound 0.05 µM): 0.908 | relative viability (LOU-NH91; first compound 0.1581 µM): 0.782 | relative viability (LOU-NH91; first compound 0.5 µM): 0.761 | relative viability (NCI-H1975; first compound 0.005 µM): 0.663 | relative viability (NCI-H1975; first compound 0.01581 µM): 0.731 | relative viability (NCI-H1975; first compound 0.05 µM): 0.712 | relative viability (NCI-H1975; first compound 0.1581 µM): 0.699 | relative viability (NCI-H1975; first compound 0.5 µM): 0.666 | relative viability (HCC-366; first compound 0.005 µM): 0.333 | relative viability (HCC-366; first compound 0.01581 µM): 0.323 | relative viability (HCC-366; first compound 0.05 µM): 0.312 | relative viability (HCC-366; first compound 0.1581 µM): 0.305 | relative viability (HCC-366; first compound 0.5 µM): 0.244 | relative viability (NCI-H1734; first compound 0.005 µM): 0.685 | relative viability (NCI-H1734; first compound 0.01581 µM): 0.79 | relative viability (NCI-H1734; first compound 0.05 µM): 0.813 | relative viability (NCI-H1734; first compound 0.1581 µM): 0.578 | relative viability (NCI-H1734; first compound 0.5 µM): 0.57 | relative viability (EMC-BAC-2; first compound 0.005 µM): 0.281 | relative viability (EMC-BAC-2; first compound 0.01581 µM): 0.548 | relative viability (EMC-BAC-2; first compound 0.05 µM): 0.5 | relative viability (EMC-BAC-2; first compound 0.1581 µM): 0.345 | relative viability (EMC-BAC-2; first compound 0.5 µM): 0.201 | relative viability (NCI-H1666; first compound 0.005 µM): 1.07 | relative viability (NCI-H1666; first compound 0.01581 µM): 1.01 | relative viability (NCI-H1666; first compound 0.05 µM): 1.11 | relative viability (NCI-H1666; first compound 0.1581 µM): 1.09 | relative viability (NCI-H1666; first compound 0.5 µM): 0.978
